Test results taken from ChEMBL document CHEMBL1154198, “Chemical genetics of Plasmodium falciparum” (Nature, 2010).

Legend:
Plasmodium falciparum [1] = assay: ST_JUDE: Plasmodium falciparum K1 EC50 (uM) as measured by SYBR green dye; format: functional, organism-based
Plasmodium falciparum [2] = assay: ST_JUDE: Plasmodium falciparum 3D7 EC50 (uM) as measured by SYBR green dye; format: functional, organism-based

Compound | EC50 (Plasmodium falciparum [1]) | EC50 (Plasmodium falciparum [2])
COc1ccc(C2C(C(=O)Nc3cc(OC)ccc3OC)c3ccccc3C(=O)N2C)cc1 (stereo unspecified) | 6.96 µM | > 15 µM
Cc1ccc(Nc2cc(C)nc(-n3cc([N+](=O)[O-])cn3)n2)cc1 | > 15 µM | 7.25 µM
O=C(Nc1ccc2oc(-c3ccccc3)nc2c1)C(Cl)(Cl)Cl | 4.52 µM | > 15 µM
CCCC(=O)NC(c1ccc(Cl)cc1)c1c(OC(C)=O)ccc2ccccc12 (stereo unspecified) | 9.29 µM | 6.92 µM
CCn1c2c(c(=N)c3c1CCC3)CCCC2 | 6.57 µM | 3.12 µM
O=[N+]([O-])c1cccc(-c2cn(-c3ccccc3)c3[n+]2CCCS3)c1 | 3.91 µM | 2.28 µM
O=C(Nc1nc(-c2ccccn2)cs1)c1ccccc1Br | 2.05 µM | 4.53 µM
Cc1cc(C)c2nc(NNC(=O)c3ccc(S(=O)(=O)N(C)C)cc3)sc2c1 | 4.88 µM | 6.63 µM
Oc1c(CN2CCN(c3cccc(C(F)(F)F)c3)CC2)cc(COCc2ccccc2)c2cccnc12 | 1.45 µM | 2.33 µM
CCCOC(=O)c1ccc(NC(=O)NC2CCCCC2)cc1 | > 15 µM | > 15 µM
FC(F)(F)c1cccc(NC(=S)Nc2cccc(Cl)c2)c1 | 2.95 µM | 3.79 µM
CCCC1=Nc2cc(C(=O)N3CCN(C(=O)OCC)CC3)ccc2Sc2ccc(C)cc21 | > 15 µM | > 15 µM
CCN(CC)S(=O)(=O)c1ccc(C(=O)NNc2nc3c(C)cccc3s2)cc1 | > 15 µM | > 15 µM
CN1CCN(c2cc(N3CCN(C)CC3)c([N+](=O)[O-])cc2C2Nc3ccc4ccccc4c3C3=C2C(=O)CC(C)(C)C3)CC1 (stereo unspecified) | > 15 µM | 3.44 µM
CC(C)CN1CCC(C(=O)Nc2ccc(-c3nc4ccccc4[nH]3)cc2)CC1 | > 15 µM | > 15 µM
CC(C)(C)c1ccc2c(c1)CN(Cc1ccc(Cl)cc1)CO2 | 0.0389 µM | 0.255 µM
CCOc1ccc(-c2nonc2NC(=O)c2ccc(C)cc2)cc1OCC | > 15 µM | > 15 µM
CCOc1ccc(-c2nonc2NC(=O)c2cccc(C)c2)cc1OCC | 0.0832 µM | 0.0619 µM
COc1ccc2nc(N(Cc3cccnc3)C(=O)c3cccc(Cl)c3)sc2c1 | > 15 µM | > 15 µM
COc1ccc(OC)c(Nc2nc(NCCO)c3ccccc3n2)c1 | > 15 µM | > 15 µM
C=CCN(CC=C)CCN1CCN(C(=O)Nc2cc(C(F)(F)F)cc(C(F)(F)F)c2)CC1 | 0.535 µM | 0.711 µM
CCOc1ccc(Nc2c3ccccc3nc3ccccc23)cc1 | 1.91 µM | 5.72 µM

Compound | EC50 (Plasmodium falciparum [1]) | EC50 (Plasmodium falciparum [2])
OC(CN1CCN(Cc2ccccc2)CC1)Cn1c2ccccc2c2ccccc21 (stereo unspecified) | 1.15 µM | 2.64 µM
Cc1c(Cl)cccc1NC(=O)Nc1ccc(Cl)c(Cl)c1 | > 15 µM | 4.13 µM
CCOc1cccc(C(=O)Nc2nonc2-c2ccc(OCC)c(OCC)c2)c1 | 0.217 µM | 0.169 µM
O=C(Nc1ccccc1F)C1c2ccccc2C(=O)N(C2CCCC2)C1c1cccs1 (stereo unspecified) | 2.55 µM | 1.77 µM
Cc1cccc(NC(=O)Nc2ccc(S(=O)(=O)C(F)(F)F)cc2)c1C | 1.22 µM | 1.32 µM
CCCCNC(=O)CSCc1cnn(-c2ccccc2)c1-n1cccc1 | 4.06 µM | 0.506 µM
CCC1=[N+](C)c2cccc3cccc(c23)N1C | 4.41 µM | 5.13 µM
CCOc1cc(/C=C(\C#N)c2nn(CCO)c(N)c2C#N)cc(I)c1OC | > 15 µM | > 15 µM
CCCO/C(O)=C1\C(C)=NC2=C(C(=O)CC(c3ccc(Cl)cc3)C2)C1c1cccc(O)c1 (stereo unspecified) | 4.47 µM | 4.83 µM
CCN(CC)CCn1c(=N)n(CC(O)COc2ccccc2C)c2ccccc21 (stereo unspecified) | 4.48 µM | 4.06 µM
COc1ccc(OC)c(C2C(C(=O)OC(C)C)=C(C)N=c3s/c(=C\c4ccc(O)cc4)c(=O)n32)c1 (stereo unspecified) | 1.39 µM | > 15 µM
Cc1n[nH]c(-c2ccc(OC(C)C)cc2O)c1Oc1ccccc1 | 2.91 µM | 5.66 µM
COc1cccc(C(=O)NC(c2ccc(C)cc2)c2cc(Cl)c3cccnc3c2O)c1 (stereo unspecified) | > 15 µM | > 15 µM
COc1cccc2sc(N(Cc3cccnc3)C(=O)C3CCCCC3)nc12 | > 15 µM | > 15 µM
Cc1cc(Nc2ccc(C)c(F)c2)n2ncnc2n1 | > 15 µM | > 15 µM
CCN(CC)CCNc1nc(Nc2cccc(OC)c2)c2cnn(-c3ccccc3)c2n1 | 2.96 µM | 0.458 µM
COc1ccc(N2CCN(C(CNC(=O)CC(C)(C)C)c3ccc4c(c3)OCO4)CC2)cc1 (stereo unspecified) | 2.01 µM | 4.28 µM
COc1ccc(CCN2COc3c(cc4c(C)c(C)c(=O)oc4c3C)C2)cc1 | 0.802 µM | 6.95 µM
Cc1ccc(C2CC(c3cccs3)=NN2C(=O)c2ccc(Br)o2)cc1 (stereo unspecified) | > 15 µM | 0.532 µM
Cc1ccc2ccc(C(Nc3ccccn3)c3ccncc3)c(O)c2n1 (stereo unspecified) | > 15 µM | 6.5 µM
Cc1ccc(S(=O)(=O)NCC(c2cccnc2)N2CCN(c3ccc(F)cc3)CC2)cc1 (stereo unspecified) | 9.43 µM | > 15 µM
CC1(C)Cc2ccccc2C(NCC(=O)O)=N1 | > 15 µM | > 15 µM

Compound | EC50 (Plasmodium falciparum [1]) | EC50 (Plasmodium falciparum [2])
CC1CN(C(=O)c2ccc(I)cc2)CC(C)O1 (stereo unspecified) | 1.52 µM | 2.73 µM
Cc1ccc2c(c1)-c1c(cnn1CC(=O)Nc1cccc(C#N)c1)CO2 | 5.38 µM | > 15 µM
COc1ccc(S(=O)(=O)Nc2cc3sc(=O)oc3c3ccccc23)cc1 | > 15 µM | > 15 µM
CN1CCN(c2nc(Nc3ccc(O)cc3)nc3ccccc23)CC1 | 6.2 µM | 2.75 µM
Cc1ccc(CNC(=O)/C=C/c2ccc([N+](=O)[O-])cc2)cc1 | > 15 µM | > 15 µM
CCC(=O)N(Cc1ccccn1)c1nc2ccccc2s1 | > 15 µM | > 15 µM
Cn1c(=N)n(CC(O)c2ccc(Cl)c(Cl)c2)c2ccccc21 (stereo unspecified) | 2.43 µM | 2.3 µM
Cc1ccc(S(=O)(=O)Nc2cc(Sc3nc[nH]n3)c(O)c3ccccc23)c(C)c1 | 5.53 µM | 3.67 µM
CS(=O)(=O)Nc1ccc2c(c1)CCCN2C(=O)c1cccs1 | 7.55 µM | > 15 µM
COc1cccc(C(=O)Nc2ccc(-c3nnc(-c4ccco4)o3)cc2)c1 | > 15 µM | > 15 µM
COc1ccc(C2NCCc3c2[nH]c2ccccc32)cc1CN1CCN(c2ccc([N+](=O)[O-])cc2)CC1 (stereo unspecified) | 3.81 µM | 3.65 µM
OCCC1CN(Cc2c(F)cccc2F)CCN1Cc1ccc(F)cc1 (stereo unspecified) | > 15 µM | > 15 µM
COc1cccc(NC(=O)C2c3ccccc3C(=O)N(C3CCCC3)C2c2cccs2)c1 (stereo unspecified) | 0.474 µM | 0.45 µM
Cc1nc2c3cc(F)ccc3n(C)c2s1 | > 15 µM | > 15 µM
COc1ccc2c(c1OC)C(=O)N1c3ccccc3N=C(c3ccc(C)cc3)CC21 (stereo unspecified) | 1.7 µM | 2.53 µM
O=C(Nc1ccc(Cl)cc1)Nc1cc(OCC(F)(F)F)cc(OCC(F)(F)F)c1 | 0.466 µM | 1.36 µM
CCOc1ccccc1CN1CCN(Cc2cc(Br)ccc2O)CC1 | 1.29 µM | 2.48 µM
Oc1c(CN2CCN(c3cccc(Cl)c3)CC2)cc(Br)c2cccnc12 | > 15 µM | 0.88 µM
Cc1cc(N2CCN(C)CC2)nc2ccc(NC(=O)c3cccc(N(C)C)c3)cc12 | 6.32 µM | 0.62 µM
CCCCCN1COc2ccc3c4c(c(=O)oc3c2C1)CCCC4 | 0.822 µM | 1.69 µM
COC(CNC(=O)c1ccc(-n2c(C)cc3c2CCCC3)cc1)OC | > 15 µM | > 15 µM
CC(C)c1ccc(/C=C2\Oc3c(ccc(O)c3CN(C)C)C2=O)cc1 | 0.615 µM | 1.01 µM

Compound | EC50 (Plasmodium falciparum [1]) | EC50 (Plasmodium falciparum [2])
CCCN(CCC)CCCNC(=O)c1ccc2c(Cl)c3c(nc2c1)CCCC3 | > 15 µM | > 15 µM
C=CCN1C(=O)c2[nH]nc(-c3c(C)cc(C)cc3O)c2C1c1ccc(OCC)cc1 (stereo unspecified) | 1.72 µM | 2.74 µM
C[n+]1ccccc1/C=C1\Sc2ccccc2N1CCC(=O)O | 3.01 µM | 7.63 µM
CCCC(=O)NC(c1cccc([N+](=O)[O-])c1)c1ccc2cccnc2c1O (stereo unspecified) | 2.48 µM | 2.88 µM
COc1ccc(-c2nn(C)c3sc(C(=O)Nc4cccc(Cl)c4)cc23)cc1OC | 6.94 µM | > 15 µM
Cc1nc2sc(C(c3ccc(Cl)c(Cl)c3)N3CCN(C)CC3)c(O)n2n1 (stereo unspecified) | > 15 µM | > 15 µM
CC(=O)C1=C(c2ccc(Br)cc2)N(C(C)=O)n2cnnc2S1 | 1.56 µM | > 15 µM
CCCC(=O)n1nc(-c2ccc(Cl)cc2)nc1NCc1ccc(OC)cc1 | > 15 µM | > 15 µM
COc1cccc(OCC(=O)NCc2ccccc2)c1 | > 15 µM | > 15 µM
Oc1ccc(Nc2nc(-c3ccccc3)c3cc(Br)ccc3n2)cc1 | 3.05 µM | > 15 µM
Cc1ccc(NC(=O)Cn2c(C)c(C=O)c3ccccc32)cc1Cl | 4.63 µM | > 15 µM
CCOc1ccc(Nc2cc(C)nc3ccc(OCC)cc23)cc1 | 3.48 µM | 1.1 µM
C=CC[n+]1c(/C=C2\C=CC=CN2CC)ccc2cc(C)ccc21 | 2.53 µM | 2.56 µM
COc1ccccc1C(=O)N(Cc1cccnc1)c1nc2c(Cl)cccc2s1 | 6.66 µM | > 15 µM
COc1ccc2ncc(C(=O)c3ccccc3)c(N3CCN(C)CC3)c2c1 | > 15 µM | > 15 µM
COc1ccc2c(c1)CN(Cc1ccc(F)cc1)CO2 | 0.372 µM | 2.13 µM
CCOc1ccc(C2N(C)c3ccccc3N2C)cc1 | > 15 µM | > 15 µM
Clc1cccc(/C=N/Nc2[nH]cnc3ncnc2-3)c1 | 3.65 µM | 2.31 µM
O=C(CN(Cc1ccc(F)cc1)S(=O)(=O)c1ccc(Cl)cc1)Nc1ccccc1Cl | 1.46 µM | > 15 µM
CCCCCCC(O)(c1ccc(F)cc1)C(CN1CCOCC1)c1ccccc1 (stereo unspecified) | 2.19 µM | 3.18 µM
O=C1c2ccccc2/C(=N/Nc2ccc([N+](=O)[O-])cc2)C1c1cc(Br)ccc1[N+](=O)[O-] (stereo unspecified) | 3.57 µM | 6.75 µM
Cc1cc(N2CCC(N(C)C3CCCC3)CC2)nc2cc(O)ccc12 | > 15 µM | 1.54 µM
